Consider 21 molecules from patent US11786519B2, “Apoptosis-inducing agents for the treatment of cancer and immune and autoimmune diseases” (AbbVie Inc., priority 2011, dated 2023).

The structures appear in SMILES notation.

Usually Ki stands for the dissociation constant of the complex between target and ligand, obtained from inhibition or displacement.

The target of this test is Bcl-xL (Homo sapiens, UniProt Q07817). The experiment in a line: TR-FRET binding assay, competition with F-Bak for Bcl-xL. Particulars: competition with F-Bak probe, GST-Bcl-xL. How it is done:
Determination of the utility of compounds having Formula (I) as binders to and inhibitors of anti-apoptotic Bcl-xL proteins was performed using the Time Resolved-Fluorescence Resonance Energy Transfer (TR-FRET) Assay. Tb-anti-GST antibody was purchased from Invitrogen (Catalog No. PV4216).
The measurement of competition of compounds of the invention with F-Bak for a Bcl-2 family protein (Bcl-xL) binding site using a Time Resolved Fluorescence Resonance Energy Transfer (TR-FRET) binding assay:
Test compounds were serially diluted in DMSO starting at 50 µM (2× starting concentration; 10% DMSO) and 10 μL transferred into a 384-well plate.
The samples are then mixed on a shaker for 1 minute then incubated for an additional 2 hours at room temperature. For each assay plate, a probe/antibody and protein/antibody/probe mixture were included as a negative and a positive control, respectively. Fluorescence was measured on the ENVISION plate reader (Perkin Elmer) using a 340/35 nm excitation filter and 520/525 (F-Bak) and 495/510 nm ([…]) emission filters. Dissociation constants (Ki) were determined using Wang's equation (Wang, Z. X. An exact mathematical expression for describing competitive binding of two different ligands to a protein molecule. FEBS Lett. 1995 360:111-114). The TR-FRET assay can be performed in the presence of varying concentrations of human serum (HS) or fetal bovine serum (FBS).
On the technique in general: Time-resolved FRET reads energy transfer from a long-lived donor to a nearby acceptor.

Chain of Bcl-xL (Q07817 whole entry): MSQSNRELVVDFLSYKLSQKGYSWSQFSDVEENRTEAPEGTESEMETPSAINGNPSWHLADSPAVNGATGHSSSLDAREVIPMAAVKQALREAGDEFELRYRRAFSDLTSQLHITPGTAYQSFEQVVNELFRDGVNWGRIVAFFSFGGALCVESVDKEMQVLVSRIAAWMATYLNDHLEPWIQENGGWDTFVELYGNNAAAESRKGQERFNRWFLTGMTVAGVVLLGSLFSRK

In turn, `CNCCOCCOCCOC12CC3CC(CC(Cn4ncc(-c5ccc(N6CCc7cccc(C(=O)Nc8nc9ccccc9s8)c7C6)nc5C(=O)O)c4C)(C3)C1)C2` [Example 83, 6-[8-(1,3-benzothiazol-2-ylcarbamoyl)-3,4-dihydroisoquinolin-2(1H)-yl]-3-(5-methyl-1-{[3-(2-{2-[2-(methylamino)ethoxy]ethoxy}ethoxy)tricyclo[3.3.1.1^3,7]dec-1-yl]methyl}-1H-pyrazol-4-yl)pyridine-2-carboxylic acid] had a Ki of less than 0.1 nM.

`COCCOC12CC3CC(CC(Cn4cc(-c5ccc(N6CCc7cccc(C(=O)Nc8nc9ccccc9s8)c7C6)nc5C(=O)O)cn4)(C3)C1)C2` [Example 8, 6-[8-(1,3-benzothiazol-2-ylcarbamoyl)-3,4-dihydroisoquinolin-2(1H)-yl]-3-(1-{[3-(2-methoxyethoxy)tricyclo[3.3.1.1^3,7]dec-1-yl]methyl}-1H-pyrazol-4-yl)pyridine-2-carboxylic acid]: the Ki is less than 0.1 nM.

`Cc1c(-c2ccc(N3CCc4cccc(C(=O)Nc5nc6ccccc6s5)c4C3)nc2C(=O)O)ccnc1OCC12CC3CC(CC(C3)C1)C2` [Example 27, 6-[8-(1,3-benzothiazol-2-ylcarbamoyl)-3,4-dihydroisoquinolin-2(1H)-yl]-3′-methyl-2′-(tricyclo[3.3.1.1^3,7]dec-1-ylmethoxy)-3,4′-bipyridine-2-carboxylic acid] registered a Ki of 0.1 nM.

For the molecule `Cc1c(-c2ccc(N3CCc4cccc(C(=O)Nc5nc6ccccc6s5)c4C3)nc2C(=O)O)cnn1CC1C2CC3CC(C2)CC1C3` (stereo not drawn) [Example 62, 6-[8-(1,3-benzothiazol-2-ylcarbamoyl)-3,4-dihydroisoquinolin-2(1H)-yl]-3-[5-methyl-1-(tricyclo[3.3.1.1^3,7]dec-2-ylmethyl)-1H-pyrazol-4-yl]pyridine-2-carboxylic acid], the Ki was less than 0.1 nM.

In the case of `O=C(Nc1nc2ccccc2s1)c1cccc2c1CN(c1ccc(-c3cnn(CC4C5CC6CC(C5)CC4C6)c3)c(C(=O)O)n1)CC2` (stereo not drawn) [Example 10, 6-[8-(1,3-benzothiazol-2-ylcarbamoyl)-3,4-dihydroisoquinolin-2(1H)-yl]-3-[1-(tricyclo[3.3.1.1^3,7]dec-2-ylmethyl)-1H-pyrazol-4-yl]pyridine-2-carboxylic acid], the Ki was less than 0.1 nM.

As for `COC12CC3CC(CC(Cn4ncc(-c5ccc(N6CCc7cccc(C(=O)Nc8nc9ccccc9s8)c7C6)nc5C(=O)NS(=O)(=O)C5CC5)c4C)(C3)C1)C2` [Example 41, N-(1,3-benzothiazol-2-yl)-2-{6-[(cyclopropylsulfonyl)carbamoyl]-5-(1-{[3-methoxytricyclo[3.3.1.1^3,7]dec-1-yl]methyl}-5-methyl-1H-pyrazol-4-yl)pyridin-2-yl}-1,2,3,4-tetrahydroisoquinoline-8-carboxamide], the Ki was less than 0.1 nM.

For the molecule `COC12CC3(C)CC(C)(CC(Cn4ncc(-c5ccc(N6CCc7cccc(C(=O)Nc8nc9ccccc9s8)c7C6)nc5C(=O)O)c4C)(C3)C1)C2` [Example 38, 6-[8-(1,3-benzothiazol-2-ylcarbamoyl)-3,4-dihydroisoquinolin-2(1H)-yl]-3-(1-{[3-methoxy-5,7-dimethyltricyclo[3.3.1.1^3,7]dec-1-yl]methyl}-5-methyl-1H-pyrazol-4-yl)pyridine-2-carboxylic acid], the Ki is less than 0.1 nM.

As for `Cc1c(-c2ccc(N3CCc4cccc(C(=O)Nc5nc6ccccc6s5)c4C3)nc2C(=O)O)cc(C#N)n1CCC12CC3CC(CC(C3)C1)C2` [Example 34, 6-[8-(1,3-benzothiazol-2-ylcarbamoyl)-3,4-dihydroisoquinolin-2(1H)-yl]-3-{5-cyano-2-methyl-1-[2-(tricyclo[3.3.1.1^3,7]dec-1-yl)ethyl]-1H-pyrrol-3-yl}pyridine-2-carboxylic acid], the affinity corresponds to a Ki of 0.4 nM.

In the case of `COC12CC3CC(CC(Cn4cc(-c5ccc(N6CCc7cccc(C(=O)Nc8nc9ccccc9s8)c7C6)nc5C(=O)O)cn4)(C3)C1)C2` [Example 7, 6-[8-(1,3-benzothiazol-2-ylcarbamoyl)-3,4-dihydroisoquinolin-2(1H)-yl]-3-(1-{[3-methoxytricyclo[3.3.1.1^3,7]dec-1-yl]methyl}-1H-pyrazol-4-yl)pyridine-2-carboxylic acid], the Ki was less than 0.1 nM.

`Cc1c(-c2ccc(N3CCc4cccc(C(=O)Nc5nc6ccccc6s5)c4C3)nc2C(=O)O)cnn1CC12CC3CC(C1)CC(S(C)(=O)=O)(C3)C2` [Example 81, 6-[8-(1,3-benzothiazol-2-ylcarbamoyl)-3,4-dihydroisoquinolin-2(1H)-yl]-3-(5-methyl-1-{[3-(methylsulfonyl)tricyclo[3.3.1.1^3,7]dec-1-yl]methyl}-1H-pyrazol-4-yl)pyridine-2-carboxylic acid] gave a Ki of less than 0.1 nM.

The molecule `O=C(Nc1nc2ccccc2s1)c1cccc2c1CN(c1ccc(-c3cnn(CC4CCC5(CCC5)CC4)c3)c(C(=O)O)n1)CC2` [Example 4, 6-[8-(1,3-benzothiazol-2-ylcarbamoyl)-3,4-dihydroisoquinolin-2(1H)-yl]-3-[1-(spiro[3.5]non-7-ylmethyl)-1H-pyrazol-4-yl]pyridine-2-carboxylic acid] yielded a Ki of 0.5 nM.

On to `O=C(Nc1nc2ccccc2s1)c1cccc2c1CN(c1ccc(-c3cnn(CC45CC6CC(CC(C6)C4)C5)c3Cl)c(C(=O)O)n1)CC2` [Example 42, 6-[8-(1,3-benzothiazol-2-ylcarbamoyl)-3,4-dihydroisoquinolin-2(1H)-yl]-3-{5-chloro-1-[tricyclo[3.3.1.1^3,7]dec-1-ylmethyl]-1H-pyrazol-4-yl}pyridine-2-carboxylic acid], for which the Ki is 0.3 nM. This Ki is about 1.7-fold lower than that of the molecule before.

As for `Cc1c(-c2ccc(N3CCc4cccc(C(=O)Nc5nc6ccccc6s5)c4C3)nc2C(=O)O)cc(C#N)n1CC12CC3CC(CC(C)(C3)O1)C2` [Example 72, 6-[8-(1,3-benzothiazol-2-ylcarbamoyl)-3,4-dihydroisoquinolin-2(1H)-yl]-3-{5-cyano-2-methyl-1-[(3-methyl-2-oxatricyclo[3.3.1.1^3,7]dec-1-yl)methyl]-1H-pyrrol-3-yl}pyridine-2-carboxylic acid], the Ki was less than 0.1 nM.

For the molecule `N#Cc1c(NC23CC4CC(CC(C4)C2)C3)cccc1-c1ccc(N2CCc3cccc(C(=O)Nc4nc5ccccc5s4)c3C2)nc1C(=O)O` [Example 47, 6-[8-(1,3-benzothiazol-2-ylcarbamoyl)-3,4-dihydroisoquinolin-2(1H)-yl]-3-{2-cyano-3-[tricyclo[3.3.1.1^3,7]dec-1-ylamino]phenyl}pyridine-2-carboxylic acid], the Ki turned out to be 0.2 nM.

In turn, `O=C(Nc1nc2ccccc2s1)c1cccc2c1CN(c1ccc(-c3cnn(CC45CC6CC(C4)CC(N4CCOCC4)(C6)C5)c3)c(C(=O)O)n1)CC2` [Example 15, 6-[8-(1,3-benzothiazol-2-ylcarbamoyl)-3,4-dihydroisoquinolin-2(1H)-yl]-3-(1-{[3-(morpholin-4-yl)tricyclo[3.3.1.1^3,7]dec-1-yl]methyl}-1H-pyrazol-4-yl)pyridine-2-carboxylic acid] displayed a Ki of less than 0.1 nM.

As for `Cc1c(-c2ccc(N3CCc4cccc(C(=O)Nc5nc6ccccc6s5)c4C3)nc2C(=O)O)cccc1S(=O)(=O)NC12CC3CC(CC(C3)C1)C2` [Example 51, 6-[8-(1,3-benzothiazol-2-ylcarbamoyl)-3,4-dihydroisoquinolin-2(1H)-yl]-3-{2-methyl-3-[tricyclo[3.3.1.1^3,7]dec-1-ylsulfamoyl]phenyl}pyridine-2-carboxylic acid], the affinity, expressed as Ki, was 0.3 nM.

In turn, `Cc1c(-c2ccc(N3CCc4cccc(C(=O)Nc5nc6ccccc6s5)c4C3)nc2C(=O)O)ccnc1S(=O)(=O)C12CC3CC(CC(C3)C1)C2` [Example 70, 6-[8-(1,3-benzothiazol-2-ylcarbamoyl)-3,4-dihydroisoquinolin-2(1H)-yl]-3′-methyl-2′-(tricyclo[3.3.1.1^3,7]dec-1-ylsulfonyl)-3,4′-bipyridine-2-carboxylic acid] returned a Ki of less than 0.1 nM.

Turning to `COCCC1(Cn2cc(-c3ccc(N4CCc5cccc(C(=O)Nc6nc7ccccc7s6)c5C4)nc3C(=O)O)cn2)C2CC3CC(C2)CC1C3` (stereo not drawn) [Example 56, 6-[8-(1,3-benzothiazol-2-ylcarbamoyl)-3,4-dihydroisoquinolin-2(1H)-yl]-3-(1-{[2-(2-methoxyethyl)tricyclo[3.3.1.1^3,7]dec-2-yl]methyl}-1H-pyrazol-4-yl)pyridine-2-carboxylic acid], the Ki was less than 0.1 nM.

As to `Cc1c(C(=O)N(C)C2C3CC4CC(C3)CC2C4)cccc1-c1ccc(N2CCc3cccc(C(=O)Nc4nc5ccccc5s4)c3C2)nc1C(=O)O` (stereo not drawn) [Example 64], the inhibition constant Ki was less than 0.1 nM.

Turning to `COC12CC3CC(CC(Cn4ncc(-c5ccc(N6CCc7cccc(C(=O)Nc8nc9ccccc9s8)c7C6)nc5C(=O)NS(=O)(=O)N5CCOCC5)c4C)(C3)C1)C2` [Example 39, N-(1,3-benzothiazol-2-yl)-2-{5-(1-{[3-methoxytricyclo[3.3.1.1^3,7]dec-1-yl]methyl}-5-methyl-1H-pyrazol-4-yl)-6-[(morpholin-4-ylsulfonyl)carbamoyl]pyridin-2-yl}-1,2,3,4-tetrahydroisoquinoline-8-carboxamide], the Ki came to 12 nM.

The molecule `Cc1c(-c2ccc(N3CCc4cccc(C(=O)Nc5nc6ccccc6s5)c4C3)nc2C(=O)O)cccc1S(=O)(=O)N(C)C1C2CC3CC(C2)CC1C3` (stereo not drawn) [Example 69, 6-[8-(1,3-benzothiazol-2-ylcarbamoyl)-3,4-dihydroisoquinolin-2(1H)-yl]-3-(2-methyl-3-{methyl[tricyclo[3.3.1.1^3,7]dec-2-yl]sulfamoyl}phenyl)pyridine-2-carboxylic acid] showed a Ki of 0.6 nM.
